Measurements as given in patent US6812225B2, “Therapeutic heterocyclic compounds” (AstraZeneca AB, priority 2001, dated 2004).

System: guinea pigs
Assay: Learned helplessness test
Type: in vivo, guinea pig
Settings: antidepressant/antianxiety activity
From the text: The utility of the compounds for example to treat depression may be shown via a learned helplessness test in guinea pigs, which is used extensively as correlative to antidepressant activity in humans. The learned helplessness test may be carried out as follows: Seventy male Hartley guinea pigs, each weighing about 350-425 gm are fed ad lib, and are housed under a 12-hour light/dark cycle. The procedure consists of two phases: The induction phase and the avoidance training phase. In the induction phase, subjects are placed into standard shuttle cages (20 L×16 W×21 centimeters H) which are fitted with a grid floor. Electrical stimulation (1.25 mA, 10 sec duration) is delivered to the floor of the cage every 90-sec during 1 hour daily sessions. Subjects have no opportunity to escape or to avoid shocks. Induction is conducted for 2 consecutive days.
In avoidance training, testing is also conducted in the shuttle cages, except that the subjects are not returned to the same chamber in which induction had occurred. Additionally, all cages are fitted with a partition with an arch in the center of the cage, through which animals can pass between the left and right halves of the cage. The procedure employed is a standard shuttle avoidance procedure in which a compound, conditioned stimulus (a 10-sec presentation of a tone and turning on of a lamp on the side of the cage that the guinea pig was occupying) serves to indicate presentation of electrical current to the floor of the cage. Shock is presented for a 5 sec period, 5 sec after initiation of the conditioned stimulus. Entry into the opposite side of the shuttle cage via the arched partition prior to shock onset results in the end of the trial (avoidance response). If shock is delivered, entry into the opposite side of the cage results in termination of the shock and CS (escape). Reversal of learned helplessness in the induction subjects correlates to antidepressant activity of the test compound.
Avoidance training, 45-min in duration, is conducted on 2 consecutive days, beginning 48 hr after the final induction session. Seventy subjects are assigned to 1 of 6 groups of 11-12 animals. The groups are as follows:
Groups 2-6 are given induction and avoidance training sessions. Injections are administered immediately following induction sessions and 1 hour prior to avoidance training sessions. A second injection is administered 7-8 hours following the first injection, for a total of 9 injections administered over 5 days. No injections are administered following the final avoidance training session.
Compounds of the present invention may be administered in a volume of 1 ml/kg bwt. Imipramine is dissolved in DI water. The compounds are dissolved in DI water, to which was added a few drops of lactic acid (pH 5.5). […]

Structure (SMILES)	activity in the learned helplessness assay
CCS(=O)(=O)N1CCN(c2ccc(NC(=O)c3cc(=O)c4cc(F)cc(N5CCN(C)CC5)c4o3)cc2)CC1 [Example 71]	demonstrate activity
CCC(=O)N1CCN(c2ccc(NC(=O)c3cc(=O)c4cc(F)cc(N5CCN(C)CC5)c4o3)cc2)CC1 [Example 72, 6-flouro-8-(4-methyl-piperazin-1-yl)-4-oxo-4H-chromene-2-carboxylic acid [4-(4-propionyl-piperazin-1-yl)-phenyl]-amide]	demonstrate activity
COc1cc(N2CCN(C)CC2)c2oc(C(=O)Nc3ccc(N4CCOCC4)cc3)cc(=O)c2c1 [Example 31, 6-Methoxy-8-(4-methyl-piperazin-1-yl)-4-oxo-4H-chromene-2-carboxylic acid (4-morpholin-4-yl-phenyl)-amide]	demonstrate activity
CCC(=O)N1CCN(c2ccc(NC(=O)c3cc(=O)c4cc(OC)cc(N5CCN(C)CC5)c4o3)cc2)CC1 [Example 44, 6-Methoxy-8-(4-methyl-piperazin-1-yl)-4-oxo-4H-chromene-2-carboxylic acid [4-(4-propionyl-piperazin-1-yl)-phenyl]-amide]	demonstrate activity

System: not given
Assay: not given
Settings: not given

Structure (SMILES)	melting point
CN1CCN(c2cccc3c(=O)cc(C(=O)N(C)c4ccc(N5CCOCC5)cc4)oc23)CC1 [Example 25, 8-(4-Methylpiperazin-1-yl)-4-oxo-4H-chromene-2-carboxylic acid methyl-(4-morpholin-4-yl-phenyl)amide]	245 to 246.8 °C
CCS(=O)(=O)N1CCN(c2ccc(NC(=O)c3cc(=O)c4cc(F)cc(N5CCN(C)CC5)c4o3)cc2)CC1 [Example 71]	233 to 234 °C
CCC(=O)N1CCN(c2ccc(NC(=O)c3cc(=O)c4cc(F)cc(N5CCN(C)CC5)c4o3)cc2)CC1 [Example 72, 6-flouro-8-(4-methyl-piperazin-1-yl)-4-oxo-4H-chromene-2-carboxylic acid [4-(4-propionyl-piperazin-1-yl)-phenyl]-amide]	244 to 245 °C
CN1CCN(c2cccc3c2OC(C(=O)Nc2ccc(N4CCOCC4)cc2)CC3)CC1 (single isomer, unassigned; (+)) [Example 76, (+)-8-(41-Methyl-piperazin-1-yl)-chroman-2-carboxylic acid (4-morpholin-4-yl-phenyl)-amide]	206 to 207 °C
COc1cc(N2CCN(C)CC2)c2oc(C(=O)Nc3ccc(N4CCOCC4)cc3)cc(=O)c2c1 [Example 31, 6-Methoxy-8-(4-methyl-piperazin-1-yl)-4-oxo-4H-chromene-2-carboxylic acid (4-morpholin-4-yl-phenyl)-amide]	234 to 236 °C
CCS(=O)(=O)N1CCN(c2ccc(NC(=O)c3cc(=O)c4cc(OC)cc(N5CCN(C)CC5)c4o3)cc2)CC1 [Example 45, 6-Methoxy-8-(4-methyl-piperazin-1-yl)-4-oxo-4H-chromene-2-carboxylic acid [4-(4-ethanesulfonyl-piperazin-1-yl)-phenyl]-amide]	232 to 234 °C
CN1CCN(c2cccc3c2OC(C(=O)Nc2ccc(N4CCOCC4)cc2)CC3=O)CC1 (single isomer, unassigned) [Example 79, 8-(4-Methyl-piperazin-1-yl)-4-oxo-chroman-2-carboxylic acid (4-morpholin-4-yl-phenyl)-amide]	216 °C (dec.)
CN1CCN(c2cccc3c(=O)cc(C(=O)Nc4ccc(N5CCOCC5)cc4O)oc23)CC1 [Example 22, 8-(4-Methyl-piperazin-1-yl)-4-oxo-4H-chromene-2-carboxylic acid (2-hydroxy-4-morpholin-4-yl-phenyl)-amide]	248.4 to 249.6 °C
CCNC(=O)N1CCN(c2ccc(NC(=O)c3cc(=O)c4cc(F)cc(N5CCN(C)CC5)c4o3)cc2)CC1 [Example 81, 4-[4-({1-[6-Fluoro-8-(4-methyl-piperazin-1-yl)-4-oxo-4H-chromen-2-yl]-methanoyl}-amino)-phenyl]-piperazine-1-carboxylic acid ethylamide]	236 to 238 °C
CN1CCN(c2cccc3c2OC(C(=O)Nc2ccc(N4CCOCC4)cc2)CC3=O)CC1 (racemic) [Example 78, racemic-8-(4-methyl-piperazin-1-yl)-4-oxo-chroman-2-carboxylic acid (4-morpholin-4-yl-phenyl)-amide]	215 to 216 °C
CN1CCN(c2cccc3c2OC(C(=O)Nc2ccc(N4CCOCC4)cc2)CC3=O)CC1 (single isomer, unassigned) [Example 80, 8-(4-Methyl-piperazin-1-yl)-4-oxo-chroman-2-carboxylic acid (4-morpholin-4-yl-phenyl)-amide]	215 °C (dec.)
CN1CCN(c2cccc3c2OC(C(=O)Nc2ccc(N4CCOCC4)cc2)CC3)CC1 (single isomer, unassigned; (-)) [Example 77, (−)-8-(4-Methyl-piperazin-1-yl)-chroman-2-carboxylic acid (4-morpholin-4-yl-phenyl)-amide]	205.5 to 207 °C
CN1CCN(c2cccc3c(=O)cc(C(=O)Nc4ccc(N5CCOCC5)cc4)oc23)CC1 [Example 1, 8-(4-methyl-1-piperazinyl)-N-[4-(4-morpholinyl)phenyl]-4-oxo-4H-chromene-2-carboxamide]	217 to 218 °C (dec.)
COc1cc(N2CCN(C)CC2)c2oc(C(=O)Nc3ccc(N4CCN(C(=O)CCO)CC4)cc3)cc(=O)c2c1 [Example 68, 6-Methoxy-8-(4-methyl-piperazin-1-yl)-4-oxo-4H-chromene-2-carboxylic acid {4-[4-(3-hydroxy-propanoyl)-piperazin-1-yl]-phenyl}-amide]	195 to 197 °C
CN1CCN(c2cccc3c(=O)cc(-c4nc5ccc(N6CCOCC6)cc5o4)oc23)CC1 [Example 21, 8-(4-Methyl-piperazin-1-yl)-2-(6-morpholin-4-yl-benzooxazol-2-yl)-chromen-4-one]	158.1 to 158.8 °C
CN1CCN(c2cc(F)cc3c(=O)cc(C(=O)Nc4ccc(N5CCN(C(=O)CCO)CC5)cc4)oc23)CC1 [Example 73, 6-Fluoro-8-(4-methyl-piperazin-1-yl)-4-oxo-4H-chromene-2-carboxylic acid {4-[4-(3-hydroxy-propanoyl)-piperazin-1-yl]-phenyl}-amide]	195 to 199 °C
CN1CCN(c2cccc3c2OC(C(=O)Nc2ccc(N4CCOCC4)cc2)CC3)CC1 (racemic) [Example 75, racemic-8-(4-Methyl-piperazin-1-yl)-chroman-2-carboxylic acid (4-morpholin-4-yl-phenyl)-amide]	215 to 216 °C

Target: 5-HT1B and 5HT1D receptors
Assay: not given
Settings: saturation studies, guinea pig cortex; read-out: Kd value of [3H]GR125743; cited from earlier work

Structure (SMILES)	Kd
COc1ccc(NC(=O)c2ccc(-c3ccncc3)c(C)c2)cc1N1CCN(C)CC1 [[^3H]-GR125743]	0.046 ± 0.004 nM
